# Source: paper PMC6222718, “Ethylenediamine Derived Carboxamides of Betulinic and Ursolic Acid as Potential Cytotoxic Agents” (Molecules : A Journal of Synthetic Chemistry and Natural …, 2018)
# Tests used:
# [1] = tested on: MCF-7 (breast adenocarcinoma); assay: SRB cytotoxicity assay, MCF-7; type: cell-based, human; conditions: for EC50: Homo sapiens, MCF7, SRB assay, 96 h of treatment, MCF-7; for Selectivity index (SI) MCF-7: SI = EC50 (NIH 3T3)/EC50 (MCF-7)
# Protocol: (§1) The cytotoxicity of ursolic and betulinic carboxamides 3–30 was determined in sulforhodamine B (SRB) assays.
# (§2) The cell lines used were human cancer cell lines: 518A2 (melanoma), A2780 (ovarian carcinoma), HT29 (colon adenocarcinoma), MCF-7 (breast adenocarcinoma), 8505C (thyroid carcinoma) and non-malignant mouse fibroblasts NIH 3T3. Cultures were maintained as monolayers in RPMI 1640 medium with L-glutamine (Capricorn Scientific GmbH, Ebsdorfergrund, Germany) supplemented with 10% heat inactivated fetal bovineserum (Sigma-Aldrich Chemie GmbH, Steinheim, Germany) and penicillin/streptomycin (Capricorn Scientific GmbH, Ebsdorfergrund, Germany) at 37 °C in a humidified atmosphere with 5% CO2.
# (§3) The cytotoxicity of the compounds was evaluated using the sulforhodamine-B (Kiton-Red S, ABCR) micro culture colorimetric assay. Cells were seeded into 96-well plates on day 0 at appropriate cell densities to prevent confluence of the cells during the period of experiment. After 24 h, the cells were treated with 6 different concentrations (1, 3, 7, 12, 20 and 30 µM) minimum. The final concentration of DMSO/DMF never exceeded 0.5%, which was non-toxic to the cells. After a 96 h treatment, the supernatant medium from the 96-well plates was discarded, the cells were fixed with 10% trichloroacetic acid (TCA) and allowed to rest at 4 °C. After 24 h fixation, the cells were washed in a strip washer and dyed with SRB solution (100 µL, 0.4% in 1% acetic acid) for about 20 min. After dying, the plates were washed four times with 1% acetic acid to remove the excess of the dye and allowed to air-dry overnight. Tris base solution (200 µL, 10 mM) was added to each well and absorbance was measured at λ = 570 nm using a 96-well plate reader (Tecan Spectra, Crailsheim, Germany). The EC50 values were averaged from three independent experiments performed each in triplicate calculated from semi logarithmic dose response curves applying a non-linear 4P Hills-slope equation (GraphPad Prism5; variables top and bottom were set to 100 and 0, respectively).
# [2] = tested on: HT29 (colon adenocarcinoma); assay: SRB cytotoxicity assay, HT29; type: cell-based, human; conditions: for EC50: Homo sapiens, HT-29, SRB assay, 96 h of treatment, HT29; for Selectivity index (SI) HT29: SI = EC50 (NIH 3T3)/EC50 (HT29)
# Protocol: as §1, §2, §3
# [3] = tested on: A2780 (ovarian carcinoma); assay: SRB cytotoxicity assay, A2780; type: cell-based, human; conditions: for EC50: Homo sapiens, SRB assay, 96 h of treatment, A2780; for Selectivity index (SI) A2780: SI = EC50 (NIH 3T3)/EC50 (A2780)
# Protocol: as §1, §2, §3
# [4] = tested on: 8505C (thyroid carcinoma); assay: SRB cytotoxicity assay, 8505C; type: cell-based, human; conditions: for EC50: Homo sapiens, SRB assay, 96 h of treatment, 8505C; for Selectivity index (SI) 8505C: SI = EC50 (NIH 3T3)/EC50 (8505C)
# Protocol: as §1, §2, §3
# 518A2 (melanoma) = assay: SRB cytotoxicity assay, 518A2; type: cell-based, human; conditions: for EC50: Homo sapiens, SRB assay, 96 h of treatment, 518A2; for Selectivity index (SI) 518A2: SI = EC50 (NIH 3T3)/EC50 (518A2)
# Protocol: as §1, §2, §3
# [5] = tested on: non-malignant mouse fibroblasts NIH 3T3; assay: SRB cytotoxicity assay, NIH 3T3; type: cell-based; conditions: NIH3T3, 96 h of treatment
# Protocol: as §1, §2, §3
Compound,EC50 [1] [nM],Selectivity index (SI) MCF-7 [1],EC50 [2] [nM],Selectivity index (SI) HT29 [2],EC50 [3] [nM],Selectivity index (SI) A2780 [3],EC50 [4] [nM],Selectivity index (SI) 8505C [4],EC50 (518A2 (melanoma)) [nM],Selectivity index (SI) 518A2 (518A2 (melanoma)),melting point,EC50 [5] [nM]
"CC(=O)O[C@H]1CC[C@@]2(C)C(CC[C@]3(C)C2CC=C2C4[C@@H](C)[C@H](C)CC[C@]4(C(=O)NCCN4CCNCC4)CC[C@]23C)C1(C)C (stereo partly drawn) [Compound 7, (3β)-N-(2-Piperazin-1-ylethyl)-3-acetyloxy-urs-12-en-28-amide]",2700 ± 300,0.81,1800 ± 200,1.22,2400 ± 100,0.92,5400 ± 400,0.41,3200 ± 100,0.69,145 to 147 °C,2200 ± 100
"C=C(C)C1CC[C@]2(C(=O)NCCCCN)CC[C@]3(C)C(CCC4[C@@]5(C)CC[C@H](OC(C)=O)C(C)(C)C5CC[C@]43C)C12 (stereo partly drawn) [Compound 22, (3β)-N-(4-Aminobutyl)-3-acetyloxy-lup-20(29)-en-28-amide]",800 ± 40,0.75,600 ± 50,1.00,1100 ± 30,0.55,1400 ± 50,0.43,1000 ± 30,0.60,133 to 135 °C,600 ± 40
"C=C(C)C1CC[C@]2(C(=O)NCCCCN)CC[C@]3(C)C(CCC4[C@@]5(C)CC[C@H](O)C(C)(C)C5CC[C@]43C)C12 (stereo partly drawn) [Compound 29, (3β)-N-(4-Aminobutyl)-3-hydroxy-lup-20(29)-en-28-amide]",600 ± 100,0.83,400 ± 100,1.25,600 ± 100,0.83,800 ± 260,0.63,400 ± 60,1.25,130 to 133 °C,500 ± 100
"C=C(C)C1CC[C@]2(C(=O)NCCN3CCNCC3)CC[C@]3(C)C(CCC4[C@@]5(C)CC[C@H](OC(C)=O)C(C)(C)C5CC[C@]43C)C12 (stereo partly drawn) [Compound 21, (3β)-N-(2-Piperazin-1-ylethyl)-3-acetyloxy-lup-20(29)-en-28-amide]",1900 ± 100,0.53,600 ± 300,1.67,1500 ± 60,0.67,1100 ± 90,0.91,2500 ± 700,0.40,107 to 110 °C,1000 ± 50
"CC(=O)O[C@H]1CC[C@@]2(C)C(CC[C@]3(C)C2CC=C2C4[C@@H](C)[C@H](C)CC[C@]4(C(=O)NCCCCN)CC[C@]23C)C1(C)C (stereo partly drawn) [Compound 8, (3β)-N-(4-Aminobutyl)-3-acetyloxy-urs-12-en-28-amide]",1700 ± 100,0.76,1700 ± 100,0.76,2600 ± 100,0.50,3200 ± 10,0.41,2700 ± 100,0.48,117 to 120 °C,1300 ± 200
"C[C@@H]1CC[C@]2(C(=O)NCCN3CCCC3)CC[C@]3(C)C(=CCC4[C@@]5(C)CC[C@H](O)C(C)(C)C5CC[C@]43C)C2[C@H]1C (stereo partly drawn) [Compound 12, (3β)-N-(2-Pyrrolidin-1-ylethyl)-3-hydroxy-urs-12-en-28-amide]",3500 ± 1000,1.77,2600 ± 300,2.38,3300 ± 300,1.88,5700 ± 200,1.09,5500 ± 100,1.13,263 to 266 °C (dec.),6200 ± 400
"C=C(C)C1CC[C@]2(C(=O)NCCOCCN)CC[C@]3(C)C(CCC4[C@@]5(C)CC[C@H](OC(C)=O)C(C)(C)C5CC[C@]43C)C12 (stereo partly drawn) [Compound 23, (3β)-N-[2-(2-Aminoethoxy)ethyl]-3-acetyloxy-lup-20(29)-en-28-amide]",1400 ± 200,0.71,400 ± 100,2.50,1500 ± 100,0.67,2200 ± 810,0.45,1900 ± 10,0.53,109 to 112 °C,1000 ± 100
"C[C@@H]1CC[C@]2(C(=O)NCCN(C)C)CC[C@]3(C)C(=CCC4[C@@]5(C)CC[C@H](O)C(C)(C)C5CC[C@]43C)C2[C@H]1C (stereo partly drawn) [Compound 11, (3β)-N-[2-(Dimethylamino)ethyl]-3-hydroxy-urs-12-en-28-amide]",4200 ± 900,1.60,3000 ± 200,2.23,4300 ± 500,1.56,7300 ± 200,0.92,6600 ± 300,1.02,270 to 273 °C (dec.),6700 ± 1300
"CC(=O)O[C@H]1CC[C@@]2(C)C(CC[C@]3(C)C2CC=C2C4[C@@H](C)[C@H](C)CC[C@]4(C(=O)NCCN)CC[C@]23C)C1(C)C (stereo partly drawn) [Compound 3, (3β)-N-(2-Aminoethyl)-3-acetyloxy-urs-12-en-28-amide]",2000 ± 100,1.30,1800 ± 100,1.44,2300 ± 100,1.13,4100 ± 400,0.63,2700 ± 100,0.96,202 to 205 °C,2600 ± 300
"C=C(C)C1CC[C@]2(C(=O)NCCOCCN)CC[C@]3(C)C(CCC4[C@@]5(C)CC[C@H](O)C(C)(C)C5CC[C@]43C)C12 (stereo partly drawn) [Compound 30, (3β)-N-[2-(2-Aminoethoxy)ethyl]-3-hydroxy-lup-20(29)-en-28-amide]",400 ± 200,1.00,500 ± 70,0.80,500 ± 40,0.80,200 ± 10,2.00,500 ± 40,0.80,182 to 183 °C,400 ± 70
"CC(=O)O[C@H]1CC[C@@]2(C)C(CC[C@]3(C)C2CC=C2C4[C@@H](C)[C@H](C)CC[C@]4(C(=O)NCCN4CCCCC4)CC[C@]23C)C1(C)C (stereo partly drawn) [Compound 6, (3β)-N-(2-Piperidin-1-ylethyl)-3-acetyloxy-urs-12-en-28-amide]",6000 ± 900,1.20,4200 ± 500,1.71,6500 ± 500,1.11,15500 ± 2700,0.46,12200 ± 300,0.59,124 to 127 °C,7200 ± 1200
